One series concerns white blood cells. The series can be described thus: Immune cell selective uptake (immune selectivity ratio) in blood cell / buffy coat preparations. It counts as cell-based. The settings on record: fluorescent compounds, FIG. 1. How it is done: Freshly drawn heparinised blood or buffy coat preparations are used for the determination of immune cell partition ratios. Buffy coat preparations are preferred. These may be obtained from donor blood by simple centrifugation of whole blood (4795 g for 10 minutes). Following centrifugation, plasma is collected from the surface, after which immune cells are expressed from the donor bags along with the erythrocytes lying immediately below the leukocyte layer. This ensures high yields and a sufficient population of erythrocytes for partition. 5 ml of the resulting cell suspension are dispensed into T25 culture flasks. Substrates are added to a final concentration between 1 and 10 μM and the suspensions incubated at 37° C., in a 5% CO2 atmosphere. For analysis of uptake kinetics, samples are withdrawn at 0, 2, 5, 10, 30, 60, 90, 180, or 240 min after substrate addition. For screening purposes, samples are taken at 0 and 120 minutes. […]
Uptake of fluorescent compounds is monitored using fluorescence microscopy. Excitation and emission wavelengths depend of the fluorescence label in use. […]
Cell lysates are analysed using a HP 1100 HPLC System (Agilent Technologies, Waldbronn, Germany) with a Kromasil 3.5μ […], 50×2.0 mm column and guard cartridge system (both, Phenomenex, Aschaffenburg, Germany) run at 30° C. […]
Masses are monitored according to the known or expected M/Z ratios. […]

In a further series the test system is E. coli. The series can be described thus: Antibiotic activity testing (TC50, dilution assay, turbidity). The series is classed as cell-based, E. coli (DH5α). The procedure:
The TC50 or MIC procedure for antibiotic sensitivity testing involves an antibiotic dilution assay, which can be performed in microtitre plates. A series of twofold dilutions of each antibiotic are made in the wells, and then all wells are inoculated with a standard amount of the same test organism. After incubation, growth in the presence of the various antibiotics is observed by measuring turbidity.
Bacteria: B. pumilus and E. coli (DH5α)
Bacterial cultures are initiated from the plates for 2 to 3 weeks. After this time period bacteria are streaked out on new plates from the backups stored at −80° C. Due to the lack of resistance of the bacteria, new cultures are not to be initiated from an old plate or any liquid cultures derived from old plates.
Growth medium (GM) (per liter): 10 g Bacto-tryptone, 5 g Bacto-yeast extract, 6 g HEPES (25 mM), 5.4 g NaCl, pH 7.3
Compound stocks 10 or 100 mM in DMSO stored at −20° C.
• 1. Grow B. pumilus from an LB agar plate in a flask (max. 10% volume) up to about 50 ml in growth medium (GM) • 2. Dilute overnight suspension 1:10 in GM • 3. Determine OD600 of diluted bacterial suspension • 4. Dilute bacterial suspension in GM to an OD600 of 0.03-0.04. (6 ml/plate) • 5. Add 200 μl GM to the outer wells (Row A, Row H, Column 1, Column 12) • 6. Add 100 μl GM to each well starting from C2, row 3. • 7. […]
8.3. […] Determine OD600 on plate reader.

As for `COc1cc(C)c(/C(=C\C(C)=O)CC(N)C(=O)O)cc1OC` (centres unmarked) [Compound 4], in the series with white blood cells, the uptake rate entry is “rapid”.
`CCC1OC(=O)C(C)C(OC2CC(C)(OC)C(O)C(C)O2)C(C)C(OC2OC(C)CC(NC)C2O)C(C)(O)CC(C)CN(C)C(C)C(O)C1(C)O` (centres unmarked) [Compound 96]: the “TC50 in E. coli” value in the series on E. coli turned out to be 28 µM.

For the origin of these results see US8357506B2, “Method of identifying improved conjugates of biologically active compounds” (priority 2002, dated 2013).
